The values below come from the OligoGym collection.

Oligonucleotides are given in HELM: sugar(base)linkage, 5' to 3'; d 2'-deoxyribose, r ribose, m 2'-O-methylribose, p phosphate. ss, as = sense and antisense strand
Also: test concentration or dose not given here.

This data set deals with SOST. The data set can be described thus: reporter assay of Huesken 2005. The following applies: siRNA.
“RNA1{r(A)p.r(G)p.r(G)p.r(U)p.r(G)p.r(C)p.r(G)p.r(C)p.r(C)p.r(U)p.r(G)p.r(G)p.r(U)p.r(G)p.r(G)p.r(C)p.r(C)p.r(U)p.r(C)p.d(T)p.d(T)}|RNA2{r(G)p.r(A)p.r(G)p.r(G)p.r(C)p.r(C)p.r(A)p.r(C)p.r(C)p.r(A)p.r(G)p.r(G)p.r(C)p.r(G)p.r(C)p.r(A)p.r(C)p.r(C)p.r(U)p.d(T)p.d(G)}$$$RNA1{StrandType:ss}|RNA2{StrandType:as}$” came in with a normalised inhibition (eCFP-eYFP dual reporter) of 71.2%.

In turn, “RNA1{r(A)p.r(G)p.r(U)p.r(G)p.r(G)p.r(U)p.r(G)p.r(G)p.r(C)p.r(G)p.r(A)p.r(C)p.r(C)p.r(U)p.r(A)p.r(G)p.r(U)p.r(G)p.r(G)p.d(T)p.d(T)}|RNA2{r(C)p.r(C)p.r(A)p.r(C)p.r(U)p.r(A)p.r(G)p.r(G)p.r(U)p.r(C)p.r(G)p.r(C)p.r(C)p.r(A)p.r(C)p.r(C)p.r(A)p.r(C)p.r(U)p.d(T)p.d(G)}$$$RNA1{StrandType:ss}|RNA2{StrandType:as}$” gave a normalised inhibition (eCFP-eYFP dual reporter) of 78.9%.

For “RNA1{r(C)p.r(A)p.r(A)p.r(G)p.r(U)p.r(G)p.r(C)p.r(A)p.r(A)p.r(G)p.r(C)p.r(G)p.r(C)p.r(C)p.r(U)p.r(C)p.r(A)p.r(C)p.r(C)p.d(T)p.d(T)}|RNA2{r(G)p.r(G)p.r(U)p.r(G)p.r(A)p.r(G)p.r(G)p.r(C)p.r(G)p.r(C)p.r(U)p.r(U)p.r(G)p.r(C)p.r(A)p.r(C)p.r(U)p.r(U)p.r(G)p.d(C)p.d(A)}$$$RNA1{StrandType:ss}|RNA2{StrandType:as}$”, the normalised inhibition (eCFP-eYFP dual reporter) is 68.8%.

“RNA1{r(C)p.r(A)p.r(A)p.r(G)p.r(U)p.r(G)p.r(G)p.r(U)p.r(G)p.r(G)p.r(C)p.r(G)p.r(A)p.r(C)p.r(C)p.r(U)p.r(A)p.r(G)p.r(U)p.d(T)p.d(T)}|RNA2{r(A)p.r(C)p.r(U)p.r(A)p.r(G)p.r(G)p.r(U)p.r(C)p.r(G)p.r(C)p.r(C)p.r(A)p.r(C)p.r(C)p.r(A)p.r(C)p.r(U)p.r(U)p.r(G)p.d(C)p.d(C)}$$$RNA1{StrandType:ss}|RNA2{StrandType:as}$”: the normalised inhibition (eCFP-eYFP dual reporter) is 64.5%.

Substance “RNA1{r(C)p.r(A)p.r(C)p.r(C)p.r(C)p.r(C)p.r(U)p.r(U)p.r(U)p.r(G)p.r(A)p.r(G)p.r(A)p.r(C)p.r(C)p.r(A)p.r(A)p.r(A)p.r(G)p.d(T)p.d(T)}|RNA2{r(C)p.r(U)p.r(U)p.r(U)p.r(G)p.r(G)p.r(U)p.r(C)p.r(U)p.r(C)p.r(A)p.r(A)p.r(A)p.r(G)p.r(G)p.r(G)p.r(G)p.r(U)p.r(G)p.d(G)p.d(T)}$$$RNA1{StrandType:ss}|RNA2{StrandType:as}$” registered a normalised inhibition (eCFP-eYFP dual reporter) of 72.2%.

Turning to “RNA1{r(C)p.r(A)p.r(G)p.r(C)p.r(G)p.r(C)p.r(C)p.r(A)p.r(A)p.r(G)p.r(C)p.r(C)p.r(G)p.r(G)p.r(U)p.r(C)p.r(A)p.r(C)p.r(C)p.d(T)p.d(T)}|RNA2{r(G)p.r(G)p.r(U)p.r(G)p.r(A)p.r(C)p.r(C)p.r(G)p.r(G)p.r(C)p.r(U)p.r(U)p.r(G)p.r(G)p.r(C)p.r(G)p.r(C)p.r(U)p.r(G)p.d(C)p.d(G)}$$$RNA1{StrandType:ss}|RNA2{StrandType:as}$”, the normalised inhibition (eCFP-eYFP dual reporter) is 50.5%.

Turning to “RNA1{r(C)p.r(A)p.r(G)p.r(G)p.r(C)p.r(G)p.r(U)p.r(U)p.r(C)p.r(A)p.r(A)p.r(G)p.r(A)p.r(A)p.r(U)p.r(G)p.r(A)p.r(U)p.r(G)p.d(T)p.d(T)}|RNA2{r(C)p.r(A)p.r(U)p.r(C)p.r(A)p.r(U)p.r(U)p.r(C)p.r(U)p.r(U)p.r(G)p.r(A)p.r(A)p.r(C)p.r(G)p.r(C)p.r(C)p.r(U)p.r(G)p.d(C)p.d(C)}$$$RNA1{StrandType:ss}|RNA2{StrandType:as}$”, the normalised inhibition (eCFP-eYFP dual reporter) stood at 82.4%.

In the case of “RNA1{r(C)p.r(A)p.r(U)p.r(C)p.r(C)p.r(C)p.r(C)p.r(G)p.r(A)p.r(G)p.r(C)p.r(U)p.r(C)p.r(G)p.r(G)p.r(A)p.r(G)p.r(A)p.r(G)p.d(T)p.d(T)}|RNA2{r(C)p.r(U)p.r(C)p.r(U)p.r(C)p.r(C)p.r(G)p.r(A)p.r(G)p.r(C)p.r(U)p.r(C)p.r(G)p.r(G)p.r(G)p.r(G)p.r(A)p.r(U)p.r(G)p.d(A)p.d(T)}$$$RNA1{StrandType:ss}|RNA2{StrandType:as}$”, the normalised inhibition (eCFP-eYFP dual reporter) worked out at 50.9%.

As for “RNA1{r(C)p.r(C)p.r(A)p.r(C)p.r(A)p.r(A)p.r(C)p.r(C)p.r(A)p.r(G)p.r(U)p.r(C)p.r(G)p.r(G)p.r(A)p.r(G)p.r(C)p.r(U)p.r(C)p.d(T)p.d(T)}|RNA2{r(G)p.r(A)p.r(G)p.r(C)p.r(U)p.r(C)p.r(C)p.r(G)p.r(A)p.r(C)p.r(U)p.r(G)p.r(G)p.r(U)p.r(U)p.r(G)p.r(U)p.r(G)p.r(G)p.d(A)p.d(A)}$$$RNA1{StrandType:ss}|RNA2{StrandType:as}$”, the normalised inhibition (eCFP-eYFP dual reporter) worked out at 80.8%.

Substance “RNA1{r(C)p.r(C)p.r(A)p.r(C)p.r(C)p.r(G)p.r(G)p.r(A)p.r(G)p.r(C)p.r(U)p.r(G)p.r(G)p.r(A)p.r(G)p.r(A)p.r(A)p.r(C)p.r(A)p.d(T)p.d(T)}|RNA2{r(U)p.r(G)p.r(U)p.r(U)p.r(C)p.r(U)p.r(C)p.r(C)p.r(A)p.r(G)p.r(C)p.r(U)p.r(C)p.r(C)p.r(G)p.r(G)p.r(U)p.r(G)p.r(G)p.d(A)p.d(G)}$$$RNA1{StrandType:ss}|RNA2{StrandType:as}$” returned a normalised inhibition (eCFP-eYFP dual reporter) of 86.7%.

Consider “RNA1{r(C)p.r(C)p.r(C)p.r(G)p.r(C)p.r(U)p.r(A)p.r(C)p.r(G)p.r(U)p.r(G)p.r(A)p.r(C)p.r(C)p.r(G)p.r(A)p.r(U)p.r(G)p.r(G)p.d(T)p.d(T)}|RNA2{r(C)p.r(C)p.r(A)p.r(U)p.r(C)p.r(G)p.r(G)p.r(U)p.r(C)p.r(A)p.r(C)p.r(G)p.r(U)p.r(A)p.r(G)p.r(C)p.r(G)p.r(G)p.r(G)p.d(T)p.d(G)}$$$RNA1{StrandType:ss}|RNA2{StrandType:as}$”, for which the normalised inhibition (eCFP-eYFP dual reporter) came to 77.6%.

Turning to “RNA1{r(C)p.r(C)p.r(G)p.r(A)p.r(U)p.r(G)p.r(G)p.r(G)p.r(C)p.r(C)p.r(G)p.r(U)p.r(G)p.r(C)p.r(C)p.r(G)p.r(C)p.r(A)p.r(G)p.d(T)p.d(T)}|RNA2{r(C)p.r(U)p.r(G)p.r(C)p.r(G)p.r(G)p.r(C)p.r(A)p.r(C)p.r(G)p.r(G)p.r(C)p.r(C)p.r(C)p.r(A)p.r(U)p.r(C)p.r(G)p.r(G)p.d(T)p.d(C)}$$$RNA1{StrandType:ss}|RNA2{StrandType:as}$”, the normalised inhibition (eCFP-eYFP dual reporter) was 54.3%.

For the substance “RNA1{r(C)p.r(C)p.r(G)p.r(C)p.r(A)p.r(G)p.r(C)p.r(G)p.r(C)p.r(C)p.r(A)p.r(A)p.r(G)p.r(C)p.r(C)p.r(G)p.r(G)p.r(U)p.r(C)p.d(T)p.d(T)}|RNA2{r(G)p.r(A)p.r(C)p.r(C)p.r(G)p.r(G)p.r(C)p.r(U)p.r(U)p.r(G)p.r(G)p.r(C)p.r(G)p.r(C)p.r(U)p.r(G)p.r(C)p.r(G)p.r(G)p.d(C)p.d(A)}$$$RNA1{StrandType:ss}|RNA2{StrandType:as}$”, the normalised inhibition (eCFP-eYFP dual reporter) stood at 51.3%.

On to “RNA1{r(C)p.r(C)p.r(G)p.r(C)p.r(G)p.r(A)p.r(G)p.r(C)p.r(U)p.r(G)p.r(C)p.r(A)p.r(C)p.r(U)p.r(U)p.r(C)p.r(A)p.r(C)p.r(C)p.d(T)p.d(T)}|RNA2{r(G)p.r(G)p.r(U)p.r(G)p.r(A)p.r(A)p.r(G)p.r(U)p.r(G)p.r(C)p.r(A)p.r(G)p.r(C)p.r(U)p.r(C)p.r(G)p.r(C)p.r(G)p.r(G)p.d(C)p.d(A)}$$$RNA1{StrandType:ss}|RNA2{StrandType:as}$”, for which the normalised inhibition (eCFP-eYFP dual reporter) worked out at 66.8%.

Substance “RNA1{r(C)p.r(C)p.r(G)p.r(C)p.r(U)p.r(A)p.r(C)p.r(G)p.r(U)p.r(G)p.r(A)p.r(C)p.r(C)p.r(G)p.r(A)p.r(U)p.r(G)p.r(G)p.r(G)p.d(T)p.d(T)}|RNA2{r(C)p.r(C)p.r(C)p.r(A)p.r(U)p.r(C)p.r(G)p.r(G)p.r(U)p.r(C)p.r(A)p.r(C)p.r(G)p.r(U)p.r(A)p.r(G)p.r(C)p.r(G)p.r(G)p.d(G)p.d(T)}$$$RNA1{StrandType:ss}|RNA2{StrandType:as}$” showed a normalised inhibition (eCFP-eYFP dual reporter) of 64.7%.

In turn, “RNA1{r(C)p.r(C)p.r(G)p.r(G)p.r(U)p.r(G)p.r(G)p.r(U)p.r(G)p.r(A)p.r(G)p.r(G)p.r(C)p.r(G)p.r(C)p.r(C)p.r(G)p.r(C)p.r(G)p.d(T)p.d(T)}|RNA2{r(C)p.r(G)p.r(C)p.r(G)p.r(G)p.r(C)p.r(G)p.r(C)p.r(C)p.r(U)p.r(C)p.r(A)p.r(C)p.r(C)p.r(A)p.r(C)p.r(C)p.r(G)p.r(G)p.d(G)p.d(A)}$$$RNA1{StrandType:ss}|RNA2{StrandType:as}$” showed a normalised inhibition (eCFP-eYFP dual reporter) of 35.8%.

Substance “RNA1{r(C)p.r(C)p.r(G)p.r(U)p.r(G)p.r(C)p.r(C)p.r(G)p.r(C)p.r(A)p.r(G)p.r(C)p.r(G)p.r(C)p.r(C)p.r(A)p.r(A)p.r(G)p.r(C)p.d(T)p.d(T)}|RNA2{r(G)p.r(C)p.r(U)p.r(U)p.r(G)p.r(G)p.r(C)p.r(G)p.r(C)p.r(U)p.r(G)p.r(C)p.r(G)p.r(G)p.r(C)p.r(A)p.r(C)p.r(G)p.r(G)p.d(C)p.d(C)}$$$RNA1{StrandType:ss}|RNA2{StrandType:as}$” registered a normalised inhibition (eCFP-eYFP dual reporter) of 50.5%.

“RNA1{r(C)p.r(C)p.r(G)p.r(U)p.r(G)p.r(U)p.r(A)p.r(G)p.r(U)p.r(G)p.r(G)p.r(A)p.r(G)p.r(G)p.r(G)p.r(C)p.r(C)p.r(A)p.r(G)p.d(T)p.d(T)}|RNA2{r(C)p.r(U)p.r(G)p.r(G)p.r(C)p.r(C)p.r(C)p.r(U)p.r(C)p.r(C)p.r(A)p.r(C)p.r(U)p.r(A)p.r(C)p.r(A)p.r(C)p.r(G)p.r(G)p.d(A)p.d(A)}$$$RNA1{StrandType:ss}|RNA2{StrandType:as}$” showed a normalised inhibition (eCFP-eYFP dual reporter) of 55.2%.

Substance “RNA1{r(C)p.r(C)p.r(U)p.r(C)p.r(C)p.r(A)p.r(C)p.r(C)p.r(G)p.r(G)p.r(A)p.r(G)p.r(C)p.r(U)p.r(G)p.r(G)p.r(A)p.r(G)p.r(A)p.d(T)p.d(T)}|RNA2{r(U)p.r(C)p.r(U)p.r(C)p.r(C)p.r(A)p.r(G)p.r(C)p.r(U)p.r(C)p.r(C)p.r(G)p.r(G)p.r(U)p.r(G)p.r(G)p.r(A)p.r(G)p.r(G)p.d(C)p.d(T)}$$$RNA1{StrandType:ss}|RNA2{StrandType:as}$” had a normalised inhibition (eCFP-eYFP dual reporter) of 68.8%.

Turning to “RNA1{r(C)p.r(G)p.r(A)p.r(U)p.r(G)p.r(G)p.r(G)p.r(C)p.r(C)p.r(G)p.r(U)p.r(G)p.r(C)p.r(C)p.r(G)p.r(C)p.r(A)p.r(G)p.r(C)p.d(T)p.d(T)}|RNA2{r(G)p.r(C)p.r(U)p.r(G)p.r(C)p.r(G)p.r(G)p.r(C)p.r(A)p.r(C)p.r(G)p.r(G)p.r(C)p.r(C)p.r(C)p.r(A)p.r(U)p.r(C)p.r(G)p.d(G)p.d(T)}$$$RNA1{StrandType:ss}|RNA2{StrandType:as}$”, the normalised inhibition (eCFP-eYFP dual reporter) was determined as 51%.
